# According to patent US20110152166A1, “METHOD OF MODULATION OF PROTEIN PHOSPHORYLATION-DEPENDENT CONFORMATIONAL TRANSITIONS WITH LOW MOLECULAR WEIGHT COMPOUNDS” (priority 2006, published 2011):
# Changes are numbered by the printed parent chain. Like-named read-outs stand apart in the source and are kept apart here. Ends that are not written are not given here.
# Tests used:
# Assay in all cases: PDK1 activity assay with T308tide
# Format in all cases: biochemical
# GST-PDK1 [Ser135Ala] = target: T1, GST-PDK1 [Ser135Ala] (Homo sapiens, UniProt O15530, S135A)
# T1 construct: different protein constructs, comprising the full length protein or the catalytic domain alone; made in house; host or cells: HEK293 cells (pEBG-2T-PDK1 mutant)
# T1 sequence (O15530 1-556 S135A): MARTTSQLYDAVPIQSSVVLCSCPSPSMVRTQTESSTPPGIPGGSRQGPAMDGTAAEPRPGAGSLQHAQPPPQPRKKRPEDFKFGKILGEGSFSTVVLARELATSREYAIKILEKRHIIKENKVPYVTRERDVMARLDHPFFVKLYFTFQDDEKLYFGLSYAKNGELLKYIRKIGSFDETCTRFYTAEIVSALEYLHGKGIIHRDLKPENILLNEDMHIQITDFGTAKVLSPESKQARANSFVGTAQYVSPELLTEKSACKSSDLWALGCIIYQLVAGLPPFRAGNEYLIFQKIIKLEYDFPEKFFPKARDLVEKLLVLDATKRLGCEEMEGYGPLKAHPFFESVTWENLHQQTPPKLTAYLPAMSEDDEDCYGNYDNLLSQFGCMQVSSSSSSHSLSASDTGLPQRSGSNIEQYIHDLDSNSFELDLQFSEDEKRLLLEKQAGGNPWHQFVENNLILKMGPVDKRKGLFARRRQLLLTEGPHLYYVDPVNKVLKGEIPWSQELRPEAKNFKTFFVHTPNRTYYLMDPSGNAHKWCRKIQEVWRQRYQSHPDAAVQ
# GST-PDK1 [Arg131Lys] = target: T2, GST-PDK1 [Arg131Lys] (Homo sapiens, UniProt O15530, R131K)
# T2 construct: different protein constructs, comprising the full length protein or the catalytic domain alone; made in house; host or cells: HEK293 cells (pEBG-2T-PDK1 mutant)
# T2 sequence (O15530 1-556 R131K): T1 sequence (O15530 1-556 S135A) with R131K, A135S
# GST-PDK1 [Arg131Met] = target: T3, GST-PDK1 [Arg131Met] (Homo sapiens, UniProt O15530, R131M)
# T3 construct: different protein constructs, comprising the full length protein or the catalytic domain alone; made in house; host or cells: HEK293 cells (pEBG-2T-PDK1 mutant)
# T3 sequence (O15530 1-556 R131M): T1 sequence (O15530 1-556 S135A) with R131M, A135S
AC50 (GST-PDK1 [Ser135Ala]),Max. activity (GST-PDK1 [Ser135Ala]),AC50 (GST-PDK1 [Arg131Lys]),Max. activity (GST-PDK1 [Arg131Lys]),Max. activity (GST-PDK1 [Arg131Met]; GST-PDK1 [Arg131Met]),"AC50 (GST-PDK1 [Arg131Met]; GST-PDK1 [Arg131Met], read-out: AC50)",activation of PDK1 mutant (in words) (GST-PDK1 [Arg131Met]; Arg131 mutated to Met),AC50 (GST-PDK1 [Arg131Met]; GST-PDK1 [Arg131Met]),Compound
180 ± 20 nM,3.4 ± 0.09 U/mg,130 ± 20 nM,0.77 ± 0.02 U/mg,0.34 ± 0.06 U/mg,290 ± 50 nM,,,"REPRILSEEEQEMFRDFDYIADWC [PIFtide, reference compound]"
109000 ± 33000 nM,2.82 ± 0.4 U/mg,51000 ± 15000 nM,1.13 ± 0.09 U/mg,,,no longer activated,No Effect,O=C(O)CSC(CC(=O)c1ccc(Cl)cc1)c1ccccc1 (stereo not drawn) [Compound 1]
